Results taken from patent US7910740B2, “Modulators of amyloid beta” (Hoffmann-La Roche Inc., priority 2007, dated 2011).

Tested on: γ-secretase
Assay: Cellular γ-secretase assay (inhibition of Aβ42 secretion)
Type: cell-based
Details: human neuroglioma H4 cells overexpressing human APP, incubation for 22 hrs, read-out: IC50 in vitro
Procedure: Cellular γ-Secretase Assay
Human neuroglioma H4 cells overexpressing human APP were plated at 30,000 cells/well/200 μl in 96-well plates in IMDM media containing 10% FCS, 0.2 mg/l Hygromycin B and incubated for 2 h at 37° C., 5% CO2 prior to adding test compounds.
Compounds for testing were dissolved in 100% Me2SO yielding in a 10 mM stock solution.
Typically 12 μl of these solutions were further diluted in 1000 μl of IMDM media (w/o FCS,). Sub sequential 1:1 dilutions gave a ten point dose response curve. 100 μl of each dilution was added to the cells in 96-well plates. Appropriate controls using vehicle only and reference compound were applied to this assay. The final concentration of Me2SO was 0.4%.
After incubation for 22 hrs at 37° C., 5% CO2, 50 μl supernatant was transferred into round-bottom 96-well polypropylene plates for detection of Aβ42. 50 μl assay buffer (50 mM Tris/Cl, pH 7.4, 60 mM NaCl, 0.5% BSA, 1% TWEEN 20) was added to the wells followed by the addition of 100 μl of detection antibody (ruthenylated BAP15 0.0625 μg/ml in assay buffer). 50 μl of a premix of capture antibody (biotinylated 6E10 antibody, 1 μg/ml) and Steptavidin-coated magnetic beads (Dynal M-280, 0.125 mg/ml) were preincubated for 1 hr at room temperature before adding the assay plates. Assay plates were incubated on a shaker for 3 hrs at room temperature and finally read in the Bioveris M8 Analyser according to the manufacturer's instructions (Bioveris).
IC50 values for inhibition of Aβ42 secretion were calculated by nonlinear regression fit analysis using XLfit 4.0 software (IDBS).

| Structure (SMILES) | IC50 [nM] |
| --- | --- |
| COc1cc(Nc2nc(C)c(Cc3cccc(Cl)c3)s2)ccc1-n1cnc(C)c1 [Example 1, [5-(3-Chloro-benzyl)-4-methyl-thiazol-2-yl]-[3-methoxy-4-(4-methyl-imidazol-1-yl)-phenyl]-amine] | 210 |
| COc1cc(Nc2nc(C)c(Cc3ccccc3Cl)s2)ccc1-n1cnc(C)c1 [Example 7, [5-(2-Chloro-benzyl)-4-methyl-thiazol-2-yl]-[3-methoxy-4-(4-methyl-imidazol-1-yl)-phenyl]-amine] | 520 |
| COc1ccc(Br)cc1-c1csc(Nc2ccc(-n3cnc(C)c3)cc2)n1 [Example 21, [4-(5-Bromo-2-methoxy-phenyl)-thiazol-2-yl]-[4-(4-methyl-imidazol-1-yl)-phenyl]-amine] | 880 |
| COc1cc(Nc2nc(CC(=O)Nc3ccc(F)cc3)cs2)ccc1-n1cnc(C)c1 [Example 29, N-(4-Fluoro-phenyl)-2-{2-[3-methoxy-4-(4-methyl-imidazol-1-yl)-phenylamino]-thiazol-4-yl}-acetamide] | 950 |
| COc1cc(Nc2nc([C@H](CC(C)C)NC(=O)OC(C)(C)C)cs2)ccc1-n1cnc(C)c1 [Example 30, ((S)-1-{2-[3-Methoxy-4-(4-methyl-imidazol-1-yl)-phenylamino]-thiazol-4-yl}-3-methyl-butyl)-carbamic acid tert-butyl ester] | 390 |
| COc1cc(Nc2nc([C@H](CC(C)C)NC(=O)CC(F)(F)F)cs2)ccc1-n1cnc(C)c1 [Example 38, 3,3,3-Trifluoro-N—((S)-1-{2-[3-methoxy-4-(4-methyl-imidazol-1-yl)-phenylamino]-thiazol-4-yl}-3-methyl-butyl)-propionamide] | 290 |
| COc1cc(Nc2nc([C@H](CC(C)C)NS(=O)(=O)Cc3ccccc3)cs2)ccc1-n1cnc(C)c1 [Example 40, N—((S)-1-{2-[3-Methoxy-4-(4-methyl-imidazol-1-yl)-phenylamino]-thiazol-4-yl}-3-methyl-butyl)-C-phenyl-methanesulfonamide] | 550 |
| COc1cc(Nc2nc([C@H](CC(C)C)NS(C)(=O)=O)cs2)ccc1-n1cnc(C)c1 [Example 41, N—((S)-1-{2-[3-Methoxy-4-(4-methyl-imidazol-1-yl)-phenylamino]-thiazol-4-yl}-3-methyl-butyl)-methane sulfonamide] | 900 |
| COc1cc(Nc2nc([C@H](Cc3ccccc3)NS(=O)(=O)c3ccc(C)cc3)cs2)ccc1-n1cnc(C)c1 [Example 55, N—((S)-1-{2-[3-Methoxy-4-(4-methyl-imidazol-1-yl)-phenylamino]-thiazol-4-yl}-2-phenyl-ethyl)-4-methyl-benzenesulfonamide] | 800 |
| COc1cc(Nc2ncc(C(O)c3ccccc3)s2)ccc1-n1cnc(C)c1 (centres unmarked) [Example 62, {2-[3-Methoxy-4-(4-methyl-imidazol-1-yl)-phenylamino]-thiazol-5-yl}-phenyl-methanol] | 570 |
| COc1cc(Nc2ncc(C(O)c3ccc(Cl)cc3)s2)ccc1-n1cnc(C)c1 (centres unmarked) [Example 76, (4-Chloro-phenyl)-{2-[3-methoxy-4-(4-methyl-imidazol-1-yl)-phenylamino]-thiazol-5-yl}-methanol] | 340 |
| COc1cc(Nc2nc(C(C)(C)c3ccc(Cl)cc3)cs2)ccc1-n1cnc(C)c1 [Example 77, {4-[1-(4-Chloro-phenyl)-1-methyl-ethyl]-thiazol-2-yl}-[3-methoxy-4-(4-methyl-imidazol-1-yl)-phenyl]-amine] | 140 |

The remaining compounds from weak to strong by IC50, led by results:

| IC50 [nM] | Structure (SMILES) |
| --- | --- |
| 920 | COc1cc(Nc2nc(C)c(Cc3cccc(C(F)(F)F)c3)s2)ccc1-n1cnc(C)c1 [Example 9, [3-Methoxy-4-(4-methyl-imidazol-1-yl)-phenyl]-[4-methyl-5-(3-trifluoromethyl-benzyl)-thiazol-2-yl]-amine] |
| 910 | COc1cc(Nc2nc([C@H](CC(C)C)NS(=O)(=O)c3ccc(F)cc3)cs2)ccc1-n1cnc(C)c1 [Example 39, 4-Fluoro-N—((S)-1-{2-[3-methoxy-4-(4-methyl-imidazol-1-yl)-phenylamino]-thiazol-4-yl}-3-methyl-butyl)-benzene sulfonamide] |
| 900 | COc1ccc(Br)cc1-c1csc(Nc2ccc(-n3cnc(C)c3)c(OC)c2)n1 [Example 16, [4-(5-Bromo-2-methoxy-phenyl)-thiazol-2-yl]-[3-methoxy-4-(4-methyl-imidazol-1-yl)-phenyl]-amine] |
| 890 | COc1cc(Nc2nc(C)c(Cc3ccc(Cl)c(C(F)(F)F)c3)s2)ccc1-n1cnc(C)c1 [Example 68, [5-(4-Chloro-3-trifluoromethyl-benzyl)-4-methyl-thiazol-2-yl]-[3-methoxy-4-(4-methyl-imidazol-1-yl)-phenyl]-amine] |
| 870 | COc1cc(Nc2nc(C)c(Cc3ccc(C#N)cc3)s2)ccc1-n1cnc(C)c1 [Example 6, 4-{2-[3-Methoxy-4-(4-methyl-imidazol-1-yl)-phenylamino]-4-methyl-thiazol-5-ylmethyl}-benzonitrile] |
| 790 | COc1ccc(Br)cc1-c1csc(Nc2ccc(-n3ccnc3)c(OC)c2)n1 [Example 22, [4-(5-Bromo-2-methoxy-phenyl)-thiazol-2-yl]-(4-imidazol-1-yl-3-methoxy-phenyl)-amine] |
| 790 | COc1cc(Nc2nc3c(s2)CN(C(=O)OC(C)(C)C)CC3)ccc1-n1cnc(C)c1 [Example 43, 2-[3-Methoxy-4-(4-methyl-imidazol-1-yl)-phenylamino]-6,7-dihydro-4H-thiazolo[5,4-c]pyridine-5-carboxylic acid tert-butyl ester] |
| 750 | Cc1cn(-c2ccc(Nc3nc(C)c(Cc4cccc(Cl)c4)s3)cc2C#N)cn1 [Example 4, 5-[5-(3-Chloro-benzyl)-4-methyl-thiazol-2-ylamino]-2-(4-methyl-imidazol-1-yl)-benzonitrile] |
| 730 | COc1cc(Nc2nc(C)c(Cc3cccc(OC(F)(F)C(F)F)c3)s2)ccc1-n1cnc(C)c1 [Example 69, [3-Methoxy-4-(4-methyl-imidazol-1-yl)-phenyl]-{4-methyl-5-[3-(1,1,2,2-tetrafluoro-ethoxy)-benzyl]-thiazol-2-yl}-amine] |
| 710 | COc1cc(Nc2nc(C)c(Cc3ccc(C)c(Cl)c3)s2)ccc1-n1cnc(C)c1 [Example 70, [5-(3-Chloro-4-methyl-benzyl)-4-methyl-thiazol-2-yl]-[3-methoxy-4-(4-methyl-imidazol-1-yl)-phenyl]-amine] |
| 680 | COc1cc(Nc2nc(C(C)(C)c3cc(F)c(F)c(F)c3)cs2)ccc1-n1cnc(C)c1 [Example 78, [3-Methoxy-4-(4-methyl-imidazol-1-yl)-phenyl]-{4-[1-methyl-1-(3,4,5-trifluoro-phenyl)-ethyl]-thiazol-2-yl}-amine] |
| 640 | CCOC(=O)c1sc(Nc2ccc(-n3cnc(C)c3)c(OC)c2)nc1C(F)(F)F [Example 42, 2-[3-Methoxy-4-(4-methyl-imidazol-1-yl)-phenylamino]-4-trifluoromethyl-thiazole-5-carboxylic acid ethyl ester] |
| 570 | COc1cc(Nc2nc(C)c(Cc3ccc(C(C)(C)C)cc3)s2)ccc1-n1cnc(C)c1 [Example 8, [5-(4-tert-Butyl-benzyl)-4-methyl-thiazol-2-yl]-[3-methoxy-4-(4-methyl-imidazol-1-yl)-phenyl]-amine] |
| 520 | COc1cc(Nc2nc([C@H](CC(C)C)NC(=O)Cc3ccc(F)cc3)cs2)ccc1-n1cnc(C)c1 [Example 34, 2-(4-Fluoro-phenyl)-N—((S)-1-{2-[3-methoxy-4-(4-methyl-imidazol-1-yl)-phenylamino]-thiazol-4-yl}-3-methyl-butyl)-acetamide] |
| 410 | COc1cc(Nc2nc([C@H](CC(C)C)NC(=O)c3ccc(F)cc3)cs2)ccc1-n1cnc(C)c1 [Example 37, 4-Fluoro-N—((S)-1-{2-[3-methoxy-4-(4-methyl-imidazol-1-yl)-phenylamino]-thiazol-4-yl}-3-methyl-butyl)-benzamide] |
| 280 | COc1cc(Nc2nc(C)c(Cc3ccc(Cl)c(Cl)c3)s2)ccc1-n1cnc(C)c1 [Example 71, [5-(3,4-Dichloro-benzyl)-4-methyl-thiazol-2-yl]-[3-methoxy-4-(4-methyl-imidazol-1-yl)-phenyl]-amine] |
| 240 | COc1cc(Nc2nc(C)c(Cc3ccc(Cl)cc3)s2)ccc1-n1cnc(C)c1 [Example 2, [5-(4-Chloro-benzyl)-4-methyl-thiazol-2-yl]-[3-methoxy-4-(4-methyl-imidazol-1-yl)-phenyl]-amine] |
